Assay results as given in patent EP0052437A1, “Antibacterial compounds, processes for their preparation and compositions containing them” (BEECHAM GROUP PLC, priority 1980, dated 1982).
≈ marks a conversion by molar mass, not a printed value.

Key:
Assay type in all cases: cell-based
M. suipneumoniae UCD 1 = assay: Anti-mycoplasmal in vitro MIC; settings: Mesomycoplasma hyopneumoniae, UCD1, 144 h, Friis broth solidified with 0.9% agarose, 6 days incubation at 37°C
[1] = tested on: Haemophilus influenzae Q1; assay: Human bacteria MIC; settings: nutrient agar with 5% chocolated horse blood, 18 hours at 37°C
Protocol: (§1) The values were determined by serial dilutions in nutrient agar with 5% chocolated horse blood after incubations for 18 hours at 37 °C.

Strep. 641848-C = assay: Human bacteria MIC; settings: nutrient agar with 5% chocolated horse blood, 18 hours at 37°C
Protocol: as §1

[2] = tested on: Neisseria catarrhalis 1502; assay: Human bacteria MIC; settings: nutrient agar with 5% chocolated horse blood, 18 hours at 37°C
Protocol: as §1

Sarcina lutea 8340 = assay: Human bacteria MIC; settings: Micrococcus luteus, nutrient agar with 5% chocolated horse blood, 18 hours at 37°C
Protocol: as §1

Staph. aureus W2827 = assay: Human bacteria MIC; settings: Staphylococcus aureus, nutrient agar with 5% chocolated horse blood, 18 hours at 37°C
Protocol: as §1

E. Coli NCTC 10418 = assay: Human bacteria MIC; settings: Escherichia coli, NCTC10418, nutrient agar with 5% chocolated horse blood, 18 hours at 37°C
Protocol: as §1

Strep. 2788-B = assay: Human bacteria MIC; settings: nutrient agar with 5% chocolated horse blood, 18 hours at 37°C
Protocol: as §1

Bacillus subtilis 6633 = assay: Human bacteria MIC; settings: nutrient agar with 5% chocolated horse blood, 18 hours at 37°C
Protocol: as §1

[3] = tested on: Haemophilus influenzae Wy21; assay: Human bacteria MIC; settings: nutrient agar with 5% chocolated horse blood, 18 hours at 37°C
Protocol: as §1

Strep. pneumoniae CN33 = assay: Human bacteria MIC; settings: Streptococcus pneumoniae, nutrient agar with 5% chocolated horse blood, 18 hours at 37°C
Protocol: as §1

K. aerogenes A = assay: Human bacteria MIC; settings: Klebsiella aerogenes, nutrient agar with 5% chocolated horse blood, 18 hours at 37°C
Protocol: as §1

[4] = tested on: Ps. aeruginosa NCTC 10662; assay: Human bacteria MIC; settings: Pseudomonas aeruginosa, NCTC10662, nutrient agar with 5% chocolated horse blood, 18 hours at 37°C
Protocol: as §1

Staph. aureus Russell = assay: Human bacteria MIC; settings: Staphylococcus aureus, nutrient agar with 5% chocolated horse blood, 18 hours at 37°C
Protocol: as §1

[5] = tested on: Strep. pyogenes R80/421-A; assay: Human bacteria MIC; settings: Streptococcus pyogenes, nutrient agar with 5% chocolated horse blood, 18 hours at 37°C
Protocol: as §1

E. coli ESS = assay: Human bacteria MIC; settings: Escherichia coli, nutrient agar with 5% chocolated horse blood, 18 hours at 37°C
Protocol: as §1

[6] = tested on: Corynebacterium xerosis 9755; assay: Human bacteria MIC; settings: nutrient agar with 5% chocolated horse blood, 18 hours at 37°C
Protocol: as §1

[7] = tested on: M. suipneumoniae ATCC 25095; assay: Anti-mycoplasmal in vitro MIC; settings: Mesomycoplasma hyopneumoniae, ATCC25095, 144 h, Friis broth solidified with 0.9% agarose, 6 days incubation at 37°C
M. suipneumoniae HK(2) = assay: Anti-mycoplasmal in vitro MIC; settings: Mesomycoplasma hyopneumoniae, 144 h, Friis broth solidified with 0.9% agarose, 6 days incubation at 37°C
M. gallisepticum S6 = assay: Anti-mycoplasmal in vitro MIC; settings: Mycoplasmoides gallisepticum, 144 h, Friis broth solidified with 0.9% agarose, 6 days incubation at 37°C
[8] = tested on: M. suipneumoniae J2206/183b; assay: Anti-mycoplasmal in vitro MIC; settings: Mesomycoplasma hyopneumoniae, 144 h, Friis broth solidified with 0.9% agarose, 6 days incubation at 37°C
M. bovis NCTC 10131 = assay: microbe, parasite or virus in culture; settings: NCTC10131, 144 h
[9] = tested on: Treponema hyodysenterial B10; assay: Swine dysentery MIC (inhibition of β-haemolysis); settings: 72 h, Strain B10, horse blood agar, 37°C for 3 days, anaerobic, lowest concentration to inhibit β-haemolysis
Protocol: (§2) The activity of the compounds of Examples 2 and 3 against various strains of Treponema hyodysenterial, associated with swine dysentry, were determined.
(§3) MIC values (µg/ml) of the compounds were determined by incorporating the compounds in horse blood agar, inoculating (multi-point) with 0.001 ml of 3 day growth from base of blood slope (+ 1 ml foetal calf serum) and incubating at 37°C for 3 days under aneorobic conditions (Gas Pak 150). The MIC values were taken as the lowest concentrations to inhibit β-haemolysis.

[10] = tested on: Treponema hyodysenterial P23; assay: Swine dysentery MIC (inhibition of β-haemolysis); settings: 72 h, Strain P23, horse blood agar, 37°C for 3 days, anaerobic, lowest concentration to inhibit β-haemolysis
Protocol: as §2, §3

[11] = tested on: Treponema hyodysenterial Navis; assay: Swine dysentery MIC (inhibition of β-haemolysis); settings: 72 h, Strain Navis, horse blood agar, 37°C for 3 days, anaerobic, lowest concentration to inhibit β-haemolysis
Protocol: as §2, §3

[12] = tested on: Treponema hyodysenterial S77/2; assay: Swine dysentery MIC (inhibition of β-haemolysis); settings: 72 h, Strain S77/2, horse blood agar, 37°C for 3 days, anaerobic, lowest concentration to inhibit β-haemolysis
Protocol: as §2, §3

[13] = tested on: Treponema hyodysenterial S77/10; assay: Swine dysentery MIC (inhibition of β-haemolysis); settings: 72 h, Strain S77/10, horse blood agar, 37°C for 3 days, anaerobic, lowest concentration to inhibit β-haemolysis
Protocol: as §2, §3

[14] = tested on: Treponema hyodysenterial TH3; assay: Swine dysentery MIC (inhibition of β-haemolysis); settings: 72 h, Strain TH3, horse blood agar, 37°C for 3 days, anaerobic, lowest concentration to inhibit β-haemolysis
Protocol: as §2, §3

[15] = tested on: Treponema hyodysenterial S73/2; assay: Swine dysentery MIC (inhibition of β-haemolysis); settings: 72 h, Strain S73/2, horse blood agar, 37°C for 3 days, anaerobic, lowest concentration to inhibit β-haemolysis
Protocol: as §2, §3

SMILES	MIC (M. suipneumoniae UCD 1) [µg/mL]	MIC [1] [µg/mL]	MIC (Strep. 641848-C) [µg/mL]	MIC [2] [µg/mL]	MIC (Sarcina lutea 8340) [µg/mL]	MIC (Staph. aureus W2827) [µg/mL]	MIC (E. Coli NCTC 10418) [µg/mL]	MIC (Strep. 2788-B) [µg/mL]	MIC (Bacillus subtilis 6633) [µg/mL]	MIC [3] [µg/mL]	MIC (K. aerogenes A) [µg/mL]	MIC [4] [µg/mL]	MIC (Staph. aureus Russell) [µg/mL]	MIC (E. coli ESS) [µg/mL]	MIC [6] [µg/mL]	MIC [7] [µg/mL]	MIC (M. suipneumoniae HK(2)) [µg/mL]	MIC (M. gallisepticum S6) [µg/mL]	MIC [8] [µg/mL]	MIC (M. bovis NCTC 10131) [µg/mL]	also measured
C/C(=C\C(=O)OCc1ccccc1C#N)CC1OCC(CC2OC2C(C)C(C)O)C(O)C1O (centres unmarked) [Example 1, o-Cyanobenzyl monate A]	1 (≈ 2.18 µM)	0.25 (≈ 0.544 µM)	1 (≈ 2.18 µM)	0.5 (≈ 1.09 µM)	> 100	2.5 (≈ 5.44 µM)	> 100	5 (≈ 10.9 µM)	2.5 (≈ 5.44 µM)	0.25 (≈ 0.544 µM)	> 100	> 100	1 (≈ 2.18 µM)	1 (≈ 2.18 µM)	> 100	0.5 (≈ 1.09 µM)	1 (≈ 2.18 µM)	2.5 (≈ 5.44 µM)	1 (≈ 2.18 µM)		MIC (Strep. pneumoniae CN33): 1 µg/mL (≈ 2.18 µM); MIC [5]: 0.5 µg/mL (≈ 1.09 µM)
C/C(=C\C(=O)OCc1cccc(C#N)c1)CC1OCC(CC2OC2C(C)C(C)O)C(O)C1O (centres unmarked) [Example 2, m-Cyanobenzyl monate A]	0.1 (≈ 0.218 µM)	0.1 (≈ 0.218 µM)	1 (≈ 2.18 µM)	0.25 (≈ 0.544 µM)	> 100	1 (≈ 2.18 µM)	50 (≈ 109 µM)		0.5 (≈ 1.09 µM)	0.1 (≈ 0.218 µM)	100 (≈ 218 µM)	> 100	2.5 (≈ 5.44 µM)	0.5 (≈ 1.09 µM)	> 100	0.05 (≈ 0.109 µM)	0.1 (≈ 0.218 µM)	2.5 (≈ 5.44 µM)	0.05 (≈ 0.109 µM)	≤ 0.01	MIC (Strep. pneumoniae CN33): 0.5 µg/mL (≈ 1.09 µM); MIC [9]: 10 µg/mL (≈ 21.8 µM); MIC [10]: 10 µg/mL (≈ 21.8 µM); MIC [11]: 10 µg/mL (≈ 21.8 µM); MIC [12]: 10 µg/mL (≈ 21.8 µM); MIC [13]: 10 µg/mL (≈ 21.8 µM)
C/C(=C\C(=O)OCc1ccc(C#N)cc1)CC1OCC(CC2OC2C(C)C(C)O)C(O)C1O (centres unmarked) [Example 3, p-Cyanobenzyl monate A]	0.25 (≈ 0.544 µM)	0.1 (≈ 0.218 µM)	0.25 (≈ 0.544 µM)	0.1 (≈ 0.218 µM)	> 100	0.5 (≈ 1.09 µM)	50 (≈ 109 µM)	0.5 (≈ 1.09 µM)	0.1 (≈ 0.218 µM)		50 (≈ 109 µM)	> 100	0.5 (≈ 1.09 µM)	0.25 (≈ 0.544 µM)	> 100	0.25 (≈ 0.544 µM)	0.25 (≈ 0.544 µM)	0.25 (≈ 0.544 µM)	0.25 (≈ 0.544 µM)	< 0.01	MIC (Strep. pneumoniae CN33): 0.25 µg/mL (≈ 0.544 µM); MIC [5]: 0.1 µg/mL (≈ 0.218 µM); MIC [9]: 20 µg/mL (≈ 43.5 µM); MIC [14]: 5 µg/mL (≈ 10.9 µM); MIC [15]: 5 µg/mL (≈ 10.9 µM); MIC [10]: 40 µg/mL (≈ 87 µM); MIC [11]: 10 µg/mL (≈ 21.8 µM); MIC [12]: 10 µg/mL (≈ 21.8 µM); MIC [13]: 10 µg/mL (≈ 21.8 µM)
C/C(=C\C(=O)OC(C)c1ccc(C#N)cc1)CC1OCC(CC2OC2C(C)C(C)O)C(O)C1O (centres unmarked) [Example 4, 1-(p-Cyanophenyl)ethyl monate A]	1 (≈ 2.11 µM)	0.5 (≈ 1.06 µM)	2.5 (≈ 5.28 µM)	0.5 (≈ 1.06 µM)	> 100	5 (≈ 10.6 µM)	> 100	5 (≈ 10.6 µM)	1 (≈ 2.11 µM)	0.5 (≈ 1.06 µM)	> 100	> 100	5 (≈ 10.6 µM)	2.5 (≈ 5.28 µM)	> 100	1 (≈ 2.11 µM)	2.5 (≈ 5.28 µM)	10 (≈ 21.1 µM)	2.5 (≈ 5.28 µM)	≤ 0.01	MIC (Strep. pneumoniae CN33): 2.5 µg/mL (≈ 5.28 µM)
C/C(=C\C(=O)OCc1cccc(C#N)c1)CC1OCC(C/C=C/C(C)C(C)O)C(O)C1O (centres unmarked) [Example 5, m-Cyanobenzyl monate C]	1 (≈ 2.25 µM)		2.5 (≈ 5.64 µM)	2.5 (≈ 5.64 µM)	> 100	2.5 (≈ 5.64 µM)	> 100	5 (≈ 11.3 µM)	2.5 (≈ 5.64 µM)	2.5 (≈ 5.64 µM)	> 100	> 100	2.5 (≈ 5.64 µM)	5 (≈ 11.3 µM)	> 100	0.5 (≈ 1.13 µM)	1 (≈ 2.25 µM)	10 (≈ 22.5 µM)	1 (≈ 2.25 µM)	0.05 (≈ 0.113 µM)	MIC [5]: 2.5 µg/mL (≈ 5.64 µM)
C/C(=C\C(=O)OCc1cc(C#N)cc(C#N)c1)CC1OCC(CC2OC2C(C)C(C)O)C(O)C1O (centres unmarked) [Example 6, 3,5-Dicyanobenzyl monate A]	0.1 (≈ 0.206 µM)	0.5 (≈ 1.03 µM)	1 (≈ 2.06 µM)	0.5 (≈ 1.03 µM)	> 100	5 (≈ 10.3 µM)	> 100		2.5 (≈ 5.16 µM)		> 100	> 100	5 (≈ 10.3 µM)	5 (≈ 10.3 µM)	> 100	0.05 (≈ 0.103 µM)	0.1 (≈ 0.206 µM)	2.5 (≈ 5.16 µM)	0.1 (≈ 0.206 µM)	0.025 (≈ 0.0516 µM)	MIC [5]: 1 µg/mL (≈ 2.06 µM)
